Measurements published in patent US12233128B2, “Degraders that target ALK and therapeutic uses thereof” (DANA-FARBER CANCER INSTITUTE, INC., priority 2018, dated 2025).
Values belong to the compound of their own block, whether it stands above or below them.

Assays:
Format in all cases: cell-based
ALK = molecular target: T1, ALK (Homo sapiens, UniProt Q9UM73); test: Western blot, degradation of ALK in H3122 cells; conditions: for degradation of ALK: 16-hour treatment, 0.01-1 μM
T1 construct: EML4 N-terminal fusion partner (human entry Q9HC35); endogenous in cells; host or cells: H3122; the other entry of the earlier key: EML4 (Q9HC35, Echinoderm microtubule-associated protein-like 4)
T1 sequence (Q9UM73 with tags, fused parts or gaps): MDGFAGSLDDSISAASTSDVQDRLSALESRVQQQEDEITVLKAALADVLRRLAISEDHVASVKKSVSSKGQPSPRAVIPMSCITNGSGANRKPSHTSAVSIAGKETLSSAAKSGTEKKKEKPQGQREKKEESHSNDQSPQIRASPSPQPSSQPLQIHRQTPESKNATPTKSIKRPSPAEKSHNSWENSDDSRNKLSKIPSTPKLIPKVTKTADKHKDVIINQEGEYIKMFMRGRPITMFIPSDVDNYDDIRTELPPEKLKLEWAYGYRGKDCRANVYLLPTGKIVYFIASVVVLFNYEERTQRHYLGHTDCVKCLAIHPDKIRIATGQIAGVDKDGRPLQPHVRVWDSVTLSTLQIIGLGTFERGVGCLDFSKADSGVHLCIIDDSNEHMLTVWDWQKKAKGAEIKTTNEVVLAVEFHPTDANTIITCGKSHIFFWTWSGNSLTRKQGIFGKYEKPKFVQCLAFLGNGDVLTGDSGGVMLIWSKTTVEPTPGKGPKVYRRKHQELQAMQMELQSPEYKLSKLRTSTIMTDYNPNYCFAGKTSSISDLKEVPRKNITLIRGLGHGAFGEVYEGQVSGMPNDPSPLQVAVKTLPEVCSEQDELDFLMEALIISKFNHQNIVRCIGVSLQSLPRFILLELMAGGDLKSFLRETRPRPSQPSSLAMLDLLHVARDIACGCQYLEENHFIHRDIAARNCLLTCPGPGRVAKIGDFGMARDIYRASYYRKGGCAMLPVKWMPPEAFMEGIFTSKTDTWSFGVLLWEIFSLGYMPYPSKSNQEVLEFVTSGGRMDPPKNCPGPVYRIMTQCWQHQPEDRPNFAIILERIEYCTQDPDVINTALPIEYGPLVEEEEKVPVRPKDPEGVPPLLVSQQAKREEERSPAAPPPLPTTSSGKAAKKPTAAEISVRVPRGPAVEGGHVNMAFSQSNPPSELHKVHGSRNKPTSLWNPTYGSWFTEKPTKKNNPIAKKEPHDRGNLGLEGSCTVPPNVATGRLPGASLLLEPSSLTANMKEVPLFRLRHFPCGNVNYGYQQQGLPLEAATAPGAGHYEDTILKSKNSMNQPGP
Protocol: (§1) Blotting: Cells were washed with PBS before being lysed with Cell Lysis Buffer (Cell Signaling Technology®) supplemented with protease and phosphatase inhibitor cocktails (Roche™) at 4° C. for 15 minutes. The cell lysate was vortexed every 5 minutes over a 30-minute period before being centrifuged at 14,000×g for 20 min at 4° C. Protein in cell lysate was quantified by BCA assay (Pierce™). Primary antibodies used in this study include ALK (Cell Signaling Technology®, D5F3), Aurora A (Cell Signaling Technology®, 1F8), FAK (PTK2) (Cell Signaling Technology®, #3285), and GAPDH (Cell Signaling Technology®, 14C10). Blot quantification was performed using Image Studio™ 4.0 software, normalizing to loading control (GAPDH).

H3122 cells = test: CellTiter-Glo cell viability, anti-proliferative activity in H3122 cells; conditions: 72 hours, FIG. 1A
Protocol: (§2) CellTiter-Glo®: Cell viability was evaluated using the CellTiter-Glo® Luminescent Cell Viability Assay (Promega™) following the manufacturer's standards. 12-point dose titrations were tested in triplicate from 10000 nM to 0.056 nM over 72 hours. Anti-proliferative best fit EC50 values with 95% CI are shown as calculated by Graphpad Prism™ 7 software.

[1] = system: EML4-ALK with secondary mutations L1196M, C1156Y, or G1202R; test: CellTiter-Glo cell viability, ALK-positive Ba/F3 cells with EML4-ALK secondary mutations; conditions: 72 hours, FIG. 1A
Protocol: as §2

Aurora A = molecular target: T2, Aurora A (Homo sapiens, UniProt O14965); test: Western blot, off target degradation of Aurora A in H3122 cells; conditions: 16-hour treatment, 0.01-1 μM
T2 construct: ALK and aurora A degradation in H3122 cells; endogenous in cells; host or cells: H3122
T2 sequence (O14965 1-403): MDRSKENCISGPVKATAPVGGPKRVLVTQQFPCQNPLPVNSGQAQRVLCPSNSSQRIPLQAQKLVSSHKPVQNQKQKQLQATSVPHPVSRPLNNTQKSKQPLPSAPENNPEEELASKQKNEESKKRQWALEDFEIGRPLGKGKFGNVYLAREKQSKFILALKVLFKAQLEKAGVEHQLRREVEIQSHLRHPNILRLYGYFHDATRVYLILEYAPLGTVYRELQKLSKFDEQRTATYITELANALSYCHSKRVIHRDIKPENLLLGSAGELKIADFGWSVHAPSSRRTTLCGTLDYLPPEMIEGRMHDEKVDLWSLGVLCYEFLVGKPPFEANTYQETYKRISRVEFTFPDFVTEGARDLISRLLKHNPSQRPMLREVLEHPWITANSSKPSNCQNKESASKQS
Protocol: as §1

FAK (PTK2) = molecular target: T3, FAK (PTK2) (Homo sapiens, UniProt Q05397); test: Western blot, off target degradation of PTK2 in H3122 cells
T3 construct: endogenous in cells; host or cells: H3122
T3 sequence (Q05397 whole entry): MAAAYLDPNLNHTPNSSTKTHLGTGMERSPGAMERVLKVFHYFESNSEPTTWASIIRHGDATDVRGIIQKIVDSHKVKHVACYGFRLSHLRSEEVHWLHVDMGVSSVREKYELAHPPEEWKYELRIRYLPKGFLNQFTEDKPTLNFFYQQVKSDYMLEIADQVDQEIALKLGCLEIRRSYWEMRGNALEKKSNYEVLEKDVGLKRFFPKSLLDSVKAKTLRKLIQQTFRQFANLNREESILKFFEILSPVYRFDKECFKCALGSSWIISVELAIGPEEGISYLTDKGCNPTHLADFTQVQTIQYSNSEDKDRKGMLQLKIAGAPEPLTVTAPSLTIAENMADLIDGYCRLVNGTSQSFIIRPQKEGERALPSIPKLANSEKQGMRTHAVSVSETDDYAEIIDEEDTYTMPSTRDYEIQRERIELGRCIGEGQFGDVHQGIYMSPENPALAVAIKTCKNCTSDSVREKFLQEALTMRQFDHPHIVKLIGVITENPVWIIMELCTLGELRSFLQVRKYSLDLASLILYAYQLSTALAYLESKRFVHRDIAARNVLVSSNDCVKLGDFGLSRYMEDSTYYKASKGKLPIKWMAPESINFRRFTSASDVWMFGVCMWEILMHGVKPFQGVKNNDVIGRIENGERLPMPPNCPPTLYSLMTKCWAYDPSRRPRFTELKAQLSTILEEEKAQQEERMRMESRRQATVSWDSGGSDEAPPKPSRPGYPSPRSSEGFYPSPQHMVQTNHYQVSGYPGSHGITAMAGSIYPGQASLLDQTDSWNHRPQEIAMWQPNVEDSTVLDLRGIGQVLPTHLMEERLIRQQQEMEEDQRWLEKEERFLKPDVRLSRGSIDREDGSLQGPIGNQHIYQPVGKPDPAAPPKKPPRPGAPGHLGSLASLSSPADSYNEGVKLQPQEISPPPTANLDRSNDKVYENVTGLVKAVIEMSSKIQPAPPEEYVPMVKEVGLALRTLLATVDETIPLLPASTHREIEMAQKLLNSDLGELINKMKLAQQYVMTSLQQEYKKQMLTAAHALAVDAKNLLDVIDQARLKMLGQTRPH
Protocol: as §1

[2] = system: EML4-ALK expressing cell lines; test: CellTiter-Glo cell viability, EML4-ALK expressing cell lines; conditions: 72 hours, FIG. 2A / 3A
Protocol: as §2
The experimental protocol was as in Example 15.

- off target degradation of PTK2 (FAK (PTK2); 16-hour treatment, 0.01-1 μM): very low
SMILES: CCc1cc2c(cc1N1CCC(N3CCN(C(=O)CCOCCOCCNc4cccc5c4C(=O)N(C4CCC(=O)NC4=O)C5=O)CC3)CC1)C(C)(C)c1[nH]c3cc(C#N)ccc3c1C2=O (stereo not shown) [Compound 2, 8-(4-(4-(3-(2-(2-((2-(2,6-dioxopiperidin-3-yl)-1,3-dioxoisoindolin-4-yl)amino)ethoxy)ethoxy)propanol)piperazin-1-yl)piperidin-1-yl)-9-ethyl-6,6-dimethyl-11-oxo-6,11-dihydro-5H-benzo[b]carbazole-3-carbonitrile]
- anti-proliferative activity in H3122 cells (H3122 cells): comparable to compound 12
- activity against EML4-ALK with secondary mutations L1196M, C1156Y, or G1202R [1]: comparable to the parental inhibitor alectinib
- degradation of ALK (ALK): ability to degrade ALK in a dose dependent manner
- off target degradation of Aurora A (Aurora A): Off target degradation of Aurora A was also seen

- degradation of PTK2 (FAK (PTK2); 16-hour treatment, 1 μM): slight degradation of PTK2
SMILES: CCc1cc2c(cc1-c1cnn(CC(=O)N(C)CCOCCOCCOCCNc3cccc4c3C(=O)N(C3CCC(=O)NC3=O)C4=O)c1)C(C)(C)c1[nH]c3cc(C#N)ccc3c1C2=O (stereo not shown) [Compound 8, 2-(4-(3-cyano-9-ethyl-6,6-dimethyl-11-oxo-6,11-dihydro-5H-benzo[b]carbazol-8-yl)-1H-pyrazol-1-yl)-N-(2-(2-(2-(2-((2-(2,6-dioxopiperidin-3-yl)-1,3-dioxoisoindolin-4-yl)amino)ethoxy)ethoxy)ethoxy)ethyl)-N-methylacetamide]
- off target degradation of Aurora A (Aurora A): off target degradation of aurora A was still seen at higher doses

- degradation of ALK (ALK): significant degradation of ALK
SMILES: CCc1cc2c(cc1-c1cnn(CC(=O)NCCOCCOCCOCCOCCOCCOCCNc3cccc4c3C(=O)N(C3CCC(=O)NC3=O)C4=O)c1)C(C)(C)c1[nH]c3cc(C#N)ccc3c1C2=O (stereo not shown) [Compound 5, 2-(4-(3-cyano-9-ethyl-6,6-dimethyl-11-oxo-6,11-dihydro-5H-benzo[b]carbazol-8-yl)-1H-pyrazol-1-yl)-N-(20-((2-(2,6-dioxopiperidin-3-yl)-1,3-dioxoisoindolin-4-yl)amino)-3,6,9,12,15,18-hexaoxaicosyl)acetamide]
- anti-proliferative activity in EML4-ALK expressing cell lines [2]: slightly better activity than the other members of this group

- time at which ALK degradation is seen (ALK; time course, 100 nM): around 4 hours
- time of maximum ALK degradation (ALK; time course, 100 nM): around 8 hours
SMILES: Cc1cc(Nc2ncc(Cl)c(Nc3ccccc3S(=O)(=O)C(C)C)n2)c(OC(C)C)cc1C1CCN(CCOCCOCCNC(=O)CNc2cccc3c2C(=O)N(C2CCC(=O)NC2=O)C3=O)CC1 (stereo not shown) [Compound 12, N-(2-(2-(2-(4-(4-((5-Chloro-4-((2-(isopropylsulfonyl)phenyl)-amino)pyrimidin-2-yl)amino)-5-isopropoxy-2-methylphenyl)-piperidin-1yl)ethoxy)ethoxy)ethyl)-2-((2-(2,6-dioxopiperidin-3-yl)-1,3-dioxoisoindolin-4-yl)amino)acetamide]
- off target degradation of PTK2 (FAK (PTK2); time course, 100 nM): off target degradation activity against PTK2 that was seen

Further lines, the compound ahead of its results:

SMILES: CCc1cc2c(cc1-c1cnn(CC(=O)NCCOCCOCCNc3cccc4c3C(=O)N(C3CCC(=O)NC3=O)C4=O)c1)C(C)(C)c1[nH]c3cc(C#N)ccc3c1C2=O (stereo not shown) [Compound 4, 2-(4-(3-cyano-9-ethyl-6,6-dimethyl-11-oxo-6,11-dihydro-5H-benzo[b]carbazol-8-yl)-1H-pyrazol-1-yl)-N-(2-(2-(2-((2-(2,6-dioxopiperidin-3-yl)-1,3-dioxoisoindolin-4-yl)amino)ethoxy)ethoxy)ethyl)acetamide]
- degradation of ALK (ALK): did not degrade ALK to a significant extent

SMILES: CCc1cc2c(cc1N1CCC(N3CCN(C(=O)CCOCCOCCOCCOCCNc4cccc5c4C(=O)N(C4CCC(=O)NC4=O)C5=O)CC3)CC1)C(C)(C)c1[nH]c3cc(C#N)ccc3c1C2=O (stereo not shown) [Compound 1, 8-(4-(4-(1-((2-(2,6-dioxopiperidin-3-yl)-1,3-dioxoisoindolin-4-yl)amino)-3,6,9,12-tetraoxapentadecan-15-oyl)piperazin-1-yl)piperidin-1-yl)-9-ethyl-6,6-dimethyl-11-oxo-6,11-dihydro-5H-benzo[b]carbazole-3-carbonitrile]
- anti-proliferative activity in H3122 cells (H3122 cells): comparable to compound 12
- activity against EML4-ALK with secondary mutations L1196M, C1156Y, or G1202R [1]: comparable to the parental inhibitor alectinib
- degradation of ALK (ALK): ability to degrade ALK in a dose dependent manner
- off target degradation of Aurora A (Aurora A): Off target degradation of Aurora A was also seen
- off target degradation of PTK2 (FAK (PTK2); 16-hour treatment, 0.01-1 μM): very low

SMILES: CCc1cc2c(cc1-c1cnn(CC(=O)NCCOCCOCCOCCOCCNc3cccc4c3C(=O)N(C3CCC(=O)NC3=O)C4=O)c1)C(C)(C)c1[nH]c3cc(C#N)ccc3c1C2=O (stereo not shown) [Compound 6, 2-(4-(3-cyano-9-ethyl-6,6-dimethyl-11-oxo-6,11-dihydro-5H-benzo[b]carbazol-8-yl)-1H-pyrazol-1-yl)-N-(14-((2-(2,6-dioxopiperidin-3-yl)-1,3-dioxoisoindolin-4-yl)amino)-3,6,9,12-tetraoxatetradecyl)acetamide]
- degradation of ALK (ALK): did not degrade ALK to a significant extent
